Measured values taken from the supplement of paper PMC10307832.

Legend:
Experiment in all cases: relative viability (nuclei count vs DMSO), 5 days (fraction); higher = more cells survive
[1] = test system: NCI-H460; details: first compound 4 µM
Method in brief: (§1)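 Relative viability is defined as nuclei in treated wells over nuclei in vehicle wells. Duplicate plates were run and medians reported. Lung cancer cell lines in 1536-well plates were dosed by pin tool one day after seeding, with one drug or with a fixed anchor-drug dose plus five library-drug doses (not always all listed) in √10 steps, and nuclei were counted after 5 days.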

[2] = test system: PC-3 [JPC-3]
Method in brief: as §1

[3] = test system: LCLC-103H
Method in brief: as §1

[4] = test system: COR-L23
Method in brief: as §1

[5] = test system: SW 900
Method in brief: as §1

[6] = test system: RERF-LC-KJ
Method in brief: as §1

[7] = test system: NCI-H1944
Method in brief: as §1

[8] = test system: PC-14
Method in brief: as §1

[9] = test system: NCI-H1650
Method in brief: as §1

[10] = test system: NCI-H650
Method in brief: as §1

[11] = test system: SW 1573
Method in brief: as §1

[12] = test system: NCI-H2347
Method in brief: as §1

SMILES: COc1cc(N2CCC(C(N)=O)CC2)ccc1Nc1nc(N)c(Cl)c(Nc2ccccc2S(=O)(=O)C(C)C)n1 [HG-5-88-01] + Nc1ncn([C@H]2C[C@H](O)[C@@H](CO)O2)c(=O)n1 [Decitabine] (partner 2 µM)
- relative viability [1]: 0.419
- relative viability ([2]; first compound 0.04 µM): 0.762
- relative viability ([2]; first compound 0.1265 µM): 0.826
- relative viability ([2]; first compound 0.4 µM): 0.872
- relative viability ([2]; first compound 1.265 µM): 0.546
- relative viability ([2]; first compound 4 µM): 0.423
- relative viability ([3]; first compound 0.04 µM): 0.776
- relative viability ([3]; first compound 0.1265 µM): 0.735
- relative viability ([3]; first compound 0.4 µM): 0.738
- relative viability ([3]; first compound 1.265 µM): 0.713
- relative viability ([3]; first compound 4 µM): 0.74
- relative viability ([4]; first compound 0.04 µM): 0.405
- relative viability ([4]; first compound 0.1265 µM): 0.531
- relative viability ([4]; first compound 0.4 µM): 0.543
- relative viability ([4]; first compound 1.265 µM): 0.379
- relative viability ([4]; first compound 4 µM): 0.391
- relative viability ([5]; first compound 0.04 µM): 0.419
- relative viability ([5]; first compound 0.1265 µM): 0.441
- relative viability ([5]; first compound 0.4 µM): 0.528
- relative viability ([5]; first compound 1.265 µM): 0.492
- relative viability ([5]; first compound 4 µM): 0.436
- relative viability ([6]; first compound 0.04 µM): 0.736
- relative viability ([6]; first compound 0.1265 µM): 0.737
- relative viability ([6]; first compound 0.4 µM): 0.7
- relative viability ([6]; first compound 1.265 µM): 0.781
- relative viability ([6]; first compound 4 µM): 0.528
- relative viability ([7]; first compound 0.04 µM): 0.398
- relative viability ([7]; first compound 0.1265 µM): 0.417
- relative viability ([7]; first compound 0.4 µM): 0.554
- relative viability ([7]; first compound 1.265 µM): 0.457
- relative viability ([7]; first compound 4 µM): 0.514
- relative viability ([8]; first compound 0.04 µM): 0.215
- relative viability ([8]; first compound 0.1265 µM): 0.231
- relative viability ([8]; first compound 0.4 µM): 0.235
- relative viability ([8]; first compound 1.265 µM): 0.206
- relative viability ([8]; first compound 4 µM): 0.0628
- relative viability ([9]; first compound 0.04 µM): 0.378
- relative viability ([9]; first compound 0.1265 µM): 0.559
- relative viability ([9]; first compound 0.4 µM): 0.527
- relative viability ([9]; first compound 1.265 µM): 0.559
- relative viability ([9]; first compound 4 µM): 0.413
- relative viability ([10]; first compound 0.04 µM): 0.357
- relative viability ([10]; first compound 0.1265 µM): 0.328
- relative viability ([10]; first compound 0.4 µM): 0.435
- relative viability ([10]; first compound 1.265 µM): 0.366
- relative viability ([10]; first compound 4 µM): 0.306
- relative viability ([11]; first compound 0.04 µM): 0.454
- relative viability ([11]; first compound 0.1265 µM): 0.593
- relative viability ([11]; first compound 0.4 µM): 0.423
- relative viability ([11]; first compound 1.265 µM): 0.428
- relative viability ([11]; first compound 4 µM): 0.458
- relative viability ([12]; first compound 0.04 µM): 0.632
- relative viability ([12]; first compound 0.1265 µM): 0.637
- relative viability ([12]; first compound 0.4 µM): 0.729
- relative viability ([12]; first compound 1.265 µM): 0.672
- relative viability ([12]; first compound 4 µM): 0.645
